Assay results as given in patent US8471005B2 (Cephalon, Inc., priority 2008, dated 2013).
Like-named read-outs stand apart in the source and are kept apart here.

Assays:
[1] = biological target: T1, ALK (Homo sapiens, UniProt Q9UM73); test: ALK Kinase Assay (ELISA/TRF, PLC-γ substrate); type: biochemical; conditions: read-out: ALK Potency
T1 construct: host or cells: baculovirus expression system
Method in brief: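 IC50 values derive from percent inhibition plotted against log10 compound concentration and fitted to a variable-slope sigmoidal equation. The underlying reaction used 30 ng/ml ALK acting on immobilized PLC-γ (10 μg/mL in TBS) at 37° C for 15 minutes, read with Eu-N1 PT66 antibody.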

[2] = biological target: T2, JAK2 (Homo sapiens, UniProt O60674); test: Recombinant Human JAK2 Kinase Assay (TRF); type: biochemical; conditions: read-out: JAK2 Potency
T2 construct: host or cells: baculovirus expression system
T2 sequence (O60674 whole entry): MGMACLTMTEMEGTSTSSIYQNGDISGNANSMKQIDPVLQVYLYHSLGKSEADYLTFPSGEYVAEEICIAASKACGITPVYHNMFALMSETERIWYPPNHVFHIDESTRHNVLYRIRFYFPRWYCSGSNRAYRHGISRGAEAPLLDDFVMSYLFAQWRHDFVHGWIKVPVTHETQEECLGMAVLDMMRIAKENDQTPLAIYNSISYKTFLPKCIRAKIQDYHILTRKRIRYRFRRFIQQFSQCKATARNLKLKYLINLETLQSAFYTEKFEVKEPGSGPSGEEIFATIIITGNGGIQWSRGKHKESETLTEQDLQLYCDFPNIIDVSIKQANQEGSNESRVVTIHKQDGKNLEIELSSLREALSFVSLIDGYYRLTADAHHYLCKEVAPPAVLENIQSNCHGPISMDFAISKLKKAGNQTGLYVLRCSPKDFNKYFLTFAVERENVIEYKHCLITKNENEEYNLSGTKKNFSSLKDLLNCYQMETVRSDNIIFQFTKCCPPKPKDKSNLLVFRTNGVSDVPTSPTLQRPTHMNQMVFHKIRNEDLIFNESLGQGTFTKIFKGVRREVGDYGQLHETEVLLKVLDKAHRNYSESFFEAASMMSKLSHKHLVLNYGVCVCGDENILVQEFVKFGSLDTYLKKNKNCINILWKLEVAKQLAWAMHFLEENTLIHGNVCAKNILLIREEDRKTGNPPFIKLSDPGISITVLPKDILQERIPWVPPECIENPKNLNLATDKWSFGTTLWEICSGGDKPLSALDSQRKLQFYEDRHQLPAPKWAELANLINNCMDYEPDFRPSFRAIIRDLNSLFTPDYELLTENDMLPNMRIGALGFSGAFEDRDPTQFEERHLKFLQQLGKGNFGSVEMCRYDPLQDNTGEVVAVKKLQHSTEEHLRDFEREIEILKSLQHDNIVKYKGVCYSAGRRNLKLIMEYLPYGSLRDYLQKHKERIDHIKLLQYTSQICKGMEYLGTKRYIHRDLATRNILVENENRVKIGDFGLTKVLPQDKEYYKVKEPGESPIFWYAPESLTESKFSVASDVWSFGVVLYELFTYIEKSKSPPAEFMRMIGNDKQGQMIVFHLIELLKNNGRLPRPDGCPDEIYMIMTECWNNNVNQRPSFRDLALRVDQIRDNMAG
Method in brief: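 Europium-labelled PY100 antibody reported tyrosine phosphorylation of a Neutravidin-captured biotinyl 15-mer peptide by JAK2 (baculovirus-expressed, 15 ng/ml). Conditions: 20 mM HEPES pH 7.2, 0.2 μM ATP, 1 mM MnCl2, 0.1% BSA, DMSO 2.5% final, 20 min at room temperature.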

[3] = ALK kinase inhibition, 1 μM ATP
[4] = JAK2 kinase inhibition, 0.2 μM ATP

T1 sequence (Q9UM73 19-1620): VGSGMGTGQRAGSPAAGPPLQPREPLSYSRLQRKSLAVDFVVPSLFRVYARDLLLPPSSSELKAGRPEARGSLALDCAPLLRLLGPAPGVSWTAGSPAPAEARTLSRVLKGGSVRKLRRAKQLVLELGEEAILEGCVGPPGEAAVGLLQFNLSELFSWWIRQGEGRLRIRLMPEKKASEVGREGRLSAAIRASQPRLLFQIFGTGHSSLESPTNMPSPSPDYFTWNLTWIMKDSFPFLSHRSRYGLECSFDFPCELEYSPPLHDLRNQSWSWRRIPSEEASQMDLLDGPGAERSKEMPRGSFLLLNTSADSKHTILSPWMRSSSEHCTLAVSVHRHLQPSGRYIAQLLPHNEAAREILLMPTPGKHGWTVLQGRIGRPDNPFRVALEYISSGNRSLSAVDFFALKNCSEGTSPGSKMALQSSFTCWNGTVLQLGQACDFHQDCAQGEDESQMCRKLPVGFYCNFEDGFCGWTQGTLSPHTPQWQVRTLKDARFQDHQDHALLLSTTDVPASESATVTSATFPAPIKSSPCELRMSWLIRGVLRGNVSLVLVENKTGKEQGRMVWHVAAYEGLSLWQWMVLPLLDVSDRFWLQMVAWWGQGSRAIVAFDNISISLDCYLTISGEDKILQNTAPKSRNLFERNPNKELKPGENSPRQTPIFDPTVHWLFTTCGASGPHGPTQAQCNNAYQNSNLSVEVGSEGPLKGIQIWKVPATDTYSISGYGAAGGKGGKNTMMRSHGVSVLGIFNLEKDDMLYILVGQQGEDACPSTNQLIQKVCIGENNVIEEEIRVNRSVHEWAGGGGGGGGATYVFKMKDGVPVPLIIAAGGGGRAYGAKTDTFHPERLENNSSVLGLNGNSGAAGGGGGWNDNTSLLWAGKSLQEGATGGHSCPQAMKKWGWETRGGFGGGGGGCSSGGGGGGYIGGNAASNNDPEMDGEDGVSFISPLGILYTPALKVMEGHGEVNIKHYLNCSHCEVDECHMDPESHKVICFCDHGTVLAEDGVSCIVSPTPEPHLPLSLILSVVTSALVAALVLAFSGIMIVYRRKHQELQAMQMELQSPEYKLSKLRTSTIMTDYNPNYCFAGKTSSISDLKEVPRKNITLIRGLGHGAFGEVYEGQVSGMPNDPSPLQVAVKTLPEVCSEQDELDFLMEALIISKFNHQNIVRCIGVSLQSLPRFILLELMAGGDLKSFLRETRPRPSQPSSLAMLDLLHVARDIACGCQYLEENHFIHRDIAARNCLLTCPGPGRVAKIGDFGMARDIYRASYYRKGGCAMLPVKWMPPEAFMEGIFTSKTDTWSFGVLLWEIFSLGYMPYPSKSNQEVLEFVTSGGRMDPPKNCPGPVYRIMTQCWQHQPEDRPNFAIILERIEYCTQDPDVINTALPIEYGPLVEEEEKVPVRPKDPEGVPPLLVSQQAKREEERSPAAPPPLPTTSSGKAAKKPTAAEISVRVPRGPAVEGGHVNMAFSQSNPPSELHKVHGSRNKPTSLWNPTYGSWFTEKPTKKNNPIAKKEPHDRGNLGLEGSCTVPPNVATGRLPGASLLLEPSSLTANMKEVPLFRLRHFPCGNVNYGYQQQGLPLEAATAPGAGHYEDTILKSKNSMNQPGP

IC50 [1, 3] | IC50 [2, 4] | IC50 ([1]; ALK Kinase Inhibition) | IC50 ([2]; JAK2 Kinase Inhibition) | Compound
1000 to 10000 nM | < 100 nM |  |  | CS(=O)(=O)Nc1cccc(-c2ccc3cnc(Nc4cnn(CCN5CCOCC5)c4)nn23)c1 [Example 1195, N-(3-{2-[1-(2-Morpholin-4-yl-ethyl)-1H-pyrazol-4-ylamino]-pyrrolo[2,1-f][1,2,4]triazin-7-yl}-phenyl)-methanesulfonamide]
 |  | 100 to 1000 nM | < 100 nM | COc1ccccc1-c1ccc2cnc(Nc3ccc4nc(CN5CCOCC5)[nH]c4c3)nn12 [Example 1518, [7-(2-Methoxy-phenyl)-pyrrolo[2,1-f][1,2,4]triazin-2-yl]-(2-morpholin-4-ylmethyl-3H-benzimidazol-5-yl)-amine]
> 10000 nM | 100 to 1000 nM |  |  | CCN1CCN(C(=O)c2ccc(Nc3ncc4c(-c5ccccc5OC)ccn4n3)cc2)CC1 [Example 723, (4-Ethyl-piperazin-1-yl)-{4-[5-(2-methoxy-phenyl)-pyrrolo[2,1-f][1,2,4]triazin-2-ylamino]-phenyl}-methanone]
1000 to 10000 nM | < 100 nM |  |  | CS(=O)(=O)c1cccc(-c2ccc3cnc(Nc4ccc(-c5cccnc5)cc4)nn23)c1 [Example 1087, [7-(3-Methanesulfonyl-phenyl)-pyrrolo[2,1-f][1,2,4]triazin-2-yl]-(4-pyridin-3-yl-phenyl)-amine]
 |  | < 100 nM | < 100 nM | COc1ccccc1-c1ccc2cnc(Nc3ccc(N4CCCC(CN5CCN(C)CC5)C4)cc3)nn12 (stereo not shown) [Example 456, [7-(2-Methoxy-phenyl)-pyrrolo[2,1-f][1,2,4]triazin-2-yl]-{4-[3-(4-methyl-piperazin-1-ylmethyl)-piperidin-1-yl]-phenyl}-amine]
100 to 1000 nM | < 100 nM |  |  | COc1cc(-c2ccc3cnc(Nc4ccc(C5CN(CC(N)=O)C5)cc4)nn23)c(OC)nn1 [Example 581, 2-(3-{4-[7-(3,6-Dimethoxy-pyridazin-4-yl)-pyrrolo[2,1-f][1,2,4]triazin-2-ylamino]-phenyl}-azetidin-1-yl)-acetamide]
< 100 nM | < 100 nM |  |  | CN(c1ccccc1-c1ccc2cnc(Nc3ccc(Cn4ccnc4)cc3)nn12)S(C)(=O)=O [Example 621, N-{2-[2-(4-Imidazol-1-ylmethylphenylamino)-pyrrolo[2,1-f][1,2,4]triazin-7-yl]phenyl}-N-methyl-methanesulfonamide]
 |  | < 100 nM | < 100 nM | CN1CCN(c2ccc(Nc3ncc4ccc(-c5cccc(Cl)c5)n4n3)cc2)CC1 [Example 26, [7-(3-Chloro-phenyl)-pyrrolo[2,1-f][1,2,4]triazin-2-yl]-[4-(4-methyl-piperazin-1-yl)-phenyl]-amine]
 |  | 100 to 1000 nM | < 100 nM | COc1ccc(Nc2ncc3ccc(-c4cccnc4)n3n2)cc1N1CCOCC1 [Example 396, (4-Methoxy-3-morpholin-4-yl-phenyl)-(7-pyridin-3-yl-pyrrolo[2,1-f][1,2,4]triazin-2-yl)-amine]
 |  | 100 to 1000 nM | < 100 nM | CS(=O)(=O)Nc1ccc(-c2ccc3cnc(Nc4ccc(N5CCOCC5)cc4)nn23)cc1 [Example 200, N-{4-[2-(4-Morpholin-4-yl-phenylamino)-pyrrolo[2,1-f][1,2,4]triazin-7-yl]-phenyl}-methanesulfonamide]
100 to 1000 nM | 1000 to 10000 nM |  |  | COc1cc(C2CCN(CC(=O)OC(C)(C)C)CC2)ccc1Nc1ncc2ccc(-c3ccccc3OC)n2n1 [Example 1277, (4-{3-Methoxy-4-[7-(2-methoxy-phenyl)-pyrrolo[2,1-f][1,2,4]triazin-2-ylamino]-phenyl}-piperidin-1-yl)-acetic acid tert-butyl ester]
 |  | 1000 to 10000 nM | < 100 nM | CC(C)(C)NS(=O)(=O)c1cccc(-c2ccc3cnc(Nc4cccc(-n5cccn5)c4)nn23)c1 [Example 1386, N-tert-Butyl-3-[2-(3-pyrazol-1-yl-phenylamino)-pyrrolo[2,1-f][1,2,4]triazin-7-yl]-benzenesulfonamide]
< 100 nM | < 100 nM |  |  | [7-(4-Methanesulfonyl-phenyl)-pyrrolo[2,1-f][1,2,4]triazin-2-yl]-[2-methoxy-4-(4-methyl-piperazin-1-yl)-phenyl]-amine [Example 1126]
 |  | > 10000 nM | < 100 nM | Clc1cccc(-c2ccc3cnc(Nc4ccc(N5CCOCC5)nc4)nn23)c1 [Example 79, [7-(3-Chloro-phenyl)-pyrrolo[2,1-f][1,2,4]triazin-2-yl]-(6-morpholin-4-yl-pyridin-3-yl)-amine]
 |  | 100 to 1000 nM | < 100 nM | COc1ccc(Cl)cc1-c1ccc2cnc(Nc3cc(OC)c(OC)c(OC)c3)nn12 [Example 141, [7-(5-Chloro-2-methoxy-phenyl)-pyrrolo[2,1-f][1,2,4]triazin-2-yl]-(3,4,5-trimethoxy-phenyl)-amine]
 |  | 100 to 1000 nM | < 100 nM | COc1ccccc1-c1ccc2cnc(Nc3ccc(F)c(N4CCOCC4)c3)nn12 [Example 389, (4-Fluoro-3-morpholin-4-yl-phenyl)-[7-(2-methoxy-phenyl)-pyrrolo[2,1-f][1,2,4]triazin-2-yl]-amine]
 |  | < 100 nM | < 100 nM | COc1cc(N2CCCC(N3CCN(S(C)(=O)=O)CC3)C2)ccc1Nc1ncc2ccc(-c3ccccc3OC)n2n1 (stereo not shown) [Example 233, {4-[3-(4-Methanesulfonyl-piperazin-1-yl)-piperidin-1-yl]-2-methoxy-phenyl}-[7-(2-methoxy-phenyl)-pyrrolo[2,1-f][1,2,4]triazin-2-yl]-amine]
< 100 nM | 100 to 1000 nM |  |  | COc1cc(N2CCCN(C3CCN(CCO)CC3)CC2)ccc1Nc1ncc2ccc(-c3ccccc3OC)n2n1 [Example 800, 2-[4-(4-{3-Methoxy-4-[7-(2-methoxy-phenyl)-pyrrolo[2,1-f][1,2,4]triazin-2-ylamino]-phenyl}-[1,4]diazepan-1-yl)-piperidin-1-yl]-ethanol]
100 to 1000 nM | < 100 nM |  |  | CC(C)S(=O)(=O)c1cccc(-c2ccc3cnc(Nc4ccc(Cl)c(OC[C@@H]5CCCN5)c4)nn23)c1 [Example 1015, [4-Chloro-3-((S)-1-pyrrolidin-2-ylmethoxy)-phenyl]-{7-[3-(propane-2-sulfonyl)-phenyl]-pyrrolo[2,1-f][1,2,4]triazin-2-yl}-amine]
 |  | 100 to 1000 nM | < 100 nM | COc1cc(N2CCN(C)CC2)ccc1Nc1ncc2ccc(-c3ccc(C#N)nc3)n2n1 [Example 77, 5-{2-[2-Methoxy-4-(4-methyl-piperazin-1-yl)-phenylamino]-pyrrolo[2,1-f][1,2,4]triazin-7-yl}-pyridine-2-carbonitrile]
< 100 nM | < 100 nM |  |  | N#CCCc1cccc(-c2ccc3cnc(Nc4ccc(N5CCN(CCO)CC5)cc4)nn23)c1 [Example 1151, 3-[3-(2-{4-[4-(2-Hydroxy-ethyl)-piperazin-1-yl]-phenylamino}-pyrrolo[2,1-f][1,2,4]triazin-7-yl)-phenyl]-propionitrile]
< 100 nM | 100 to 1000 nM |  |  | COc1cc(C2CCN(CC(N)=O)C2)ccc1Nc1ncc2ccc(-c3ccccc3N(C)S(C)(=O)=O)n2n1 (racemic) [Example 837, (±)-2-[3-(4-{7-[2-(Methanesulfonyl-methyl-amino)-phenyl]-pyrrolo[2,1-f][1,2,4]triazin-2-ylamino}-3-methoxy-phenyl)-pyrrolidin-1-yl]-acetamide]
 |  | 100 to 1000 nM | < 100 nM | C[C@H](O)CN1CCN(c2cccc(Nc3ncc4ccc(-c5ccc(S(C)(=O)=O)cc5)n4n3)c2)CC1 [Example 216, (S)-1-(4-{3-[7-(4-Methanesulfonyl-phenyl)-pyrrolo[2,1-f][1,2,4]triazin-2-ylamino]-phenyl}-piperazin-1-yl)-propan-2-ol]
< 100 nM | 100 to 1000 nM |  |  | COc1cc(C2CCN(CC(=O)N(C)C)CC2)ccc1Nc1ncc2ccc(-c3ccccc3N(C)S(C)(=O)=O)n2n1 [Example 810, 2-[4-(4-{7-[2-(Methanesulfonyl-methyl-amino)-phenyl]-pyrrolo[2,1-f][1,2,4]triazin-2-ylamino}-3-methoxy-phenyl)-piperidin-1-yl]-N,N-dimethyl-acetamide]
 |  | 100 to 1000 nM | < 100 nM | COc1ccccc1-c1ccc2cnc(Nc3ccc(N4CCOCC4)c(F)c3)nn12 [Example 186, (3-Fluoro-4-morpholin-4-yl-phenyl)-[7-(2-methoxy-phenyl)-pyrrolo[2,1-f][1,2,4]triazin-2-yl]-amine]
 |  | 1000 to 10000 nM | < 100 nM | CS(=O)(=O)CCNC(=O)c1ccc(-c2ccc3cnc(Nc4ccc(N5CCOCC5)cc4)nn23)cc1 [Example 117, N-(2-Methanesulfonyl-ethyl)-4-[2-(4-morpholin-4-yl-phenylamino)-pyrrolo[2,1-f][1,2,4]triazin-7-yl]-benzamide]
1000 to 10000 nM | < 100 nM |  |  | O=S1(=O)CCN(Cc2ccc(Nc3ncc4ccc(-c5cccnc5)n4n3)cc2)CC1 [Example 1050, [4-(1,1-Dioxo-1$1(6)-thiomorpholin-4-ylmethyl)-phenyl]-(7-pyridin-3-yl-pyrrolo[2,1-f][1,2,4]triazin-2-yl)-amine]
1000 to 10000 nM | < 100 nM |  |  | COc1ccc(-c2ccc3cnc(Nc4ccc5c(c4)CN(CC(N)=O)CC5)nn23)cn1 [Example 986, 2-{7-[7-(6-Methoxy-pyridin-3-yl)-pyrrolo[2,1-f][1,2,4]triazin-2-ylamino]-3,4-dihydro-1H-isoquinolin-2-yl}-acetamide]
100 to 1000 nM | < 100 nM |  |  | COc1ccccc1-c1ccc2cnc(Nc3ccc4c(c3)NC(=O)C4(C)C)nn12 [Example 656, 6-[7-(2-Methoxy-phenyl)-pyrrolo[2,1-f][1,2,4]triazin-2-ylamino]-3,3-dimethyl-1,3-dihydro-indol-2-one]
